For assay [1], the target named is T1, human glucose-dependent insulinotropic peptide receptor (GIPR) (Homo sapiens, UniProt P48546).
T1 construct: expressed in transfected cells
T1 sequence (P48546 22-466): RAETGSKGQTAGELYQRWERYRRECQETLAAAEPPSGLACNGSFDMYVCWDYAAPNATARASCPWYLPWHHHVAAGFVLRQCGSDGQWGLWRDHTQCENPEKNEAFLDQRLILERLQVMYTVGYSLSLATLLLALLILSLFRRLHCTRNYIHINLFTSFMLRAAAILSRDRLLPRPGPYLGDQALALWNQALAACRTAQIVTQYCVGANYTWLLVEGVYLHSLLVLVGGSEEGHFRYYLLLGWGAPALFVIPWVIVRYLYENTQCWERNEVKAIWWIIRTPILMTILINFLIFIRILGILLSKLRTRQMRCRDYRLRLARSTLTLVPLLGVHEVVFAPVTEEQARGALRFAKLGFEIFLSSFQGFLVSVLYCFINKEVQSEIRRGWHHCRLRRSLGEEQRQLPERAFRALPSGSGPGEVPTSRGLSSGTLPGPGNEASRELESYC
Briefly: cAMP assay, human GIPR cells. The format is cell-based. The conditions noted are these: cAMP assay. On the procedure: (§1) Sample dilutions are made in duplicate.
(§2) A frozen cryo-vial of cells expressing the receptor of interest is thawed rapidly in a water-bath, transferred to pre-warmed assay buffer and spun at 240×g for 5 minutes. Cells are re-suspended in assay buffer at a batch-dependent optimized concentration (e.g. hGCGR cells at 2×10^5 cells/ml, hGLP-1R and hGIPR cells at 1×10^5 cells/ml).
(§3) To this, 5 μL cell suspension is added and the plates incubated at room temperature for 30 minutes.
(§4) cAMP levels are measured using a commercially available cAMP dynamic 2 HTRF kit (Cisbio, Cat #62AM4PEJ), following the two step protocol as per manufacturer's recommendations. In brief; anti-cAMP cryptate (donor fluorophore) and cAMP-d2 (acceptor fluorophore) are made up separately by diluting each 1/20 in conjugate & lysis buffer provided in the kit. 5 μL anti-cAMP cryptate is added to wells of the assay plate, and 5 μL cAMP-d2 is added to wells except non-specific binding (NSB) wells, to which conjugate and lysis buffer are added. […] EC50 values of the synthetic peptides determined in cAMP assays are then determined.
(§5) Data is transformed to % Delta F as described in the manufacturer's guidelines and analyzed by 4-parameter logistic fit to determine EC50 values. […] To compare the balance of activities at the GLP-1R and GCGR between different peptides and across different conditions, these can be correlated, where the EC50's are related to those of comparator peptides.
For orientation: Changes in cAMP serve as a functional read-out for many G protein-coupled receptors.

For assay [2], the target named is T2, human glucagon receptor (GCGR) (Homo sapiens, UniProt P47871).
T2 construct: expressed in transfected cells
T2 sequence (P47871 26-477): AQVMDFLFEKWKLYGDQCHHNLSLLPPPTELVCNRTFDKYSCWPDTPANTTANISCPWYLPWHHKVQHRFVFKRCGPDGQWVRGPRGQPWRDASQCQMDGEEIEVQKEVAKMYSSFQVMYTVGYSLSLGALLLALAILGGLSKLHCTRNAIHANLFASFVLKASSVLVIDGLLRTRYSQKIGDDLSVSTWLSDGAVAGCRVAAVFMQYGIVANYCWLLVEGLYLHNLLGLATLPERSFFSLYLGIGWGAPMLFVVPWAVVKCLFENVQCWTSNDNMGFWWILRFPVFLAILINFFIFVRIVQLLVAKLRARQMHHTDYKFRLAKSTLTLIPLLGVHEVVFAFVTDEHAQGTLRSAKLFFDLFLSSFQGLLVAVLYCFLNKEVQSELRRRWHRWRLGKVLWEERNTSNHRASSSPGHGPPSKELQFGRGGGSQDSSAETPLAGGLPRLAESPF
As to the kind of experiment: cAMP assay, human GCGR cells. Format: cell-based. Particulars: cAMP assay. As for the experimental part: as §1, §2, §3, §4, §5

Where [3] appears, read: first determination (n1), read-out: Primary assay EC50 GIP-R (n1).
[4] abbreviates: second determination (n2), read-out: Primary assay EC50 GIP-R (n2).
[5] abbreviates: first determination (n1), read-out: Primary assay EC50 Gluc-R (n1).
The mark [6] stands for this setting: second determination (n2), read-out: Primary assay EC50 Gluc-R (n2).

This note sets out measurements from patent publication US10414811B2, “Protease-resistant lipidated GLP-1 analogs” (MEDIMMUNE LIMITED, priority 2015, dated 2019).

As usually defined, the EC50 is the midpoint of the concentration-response curve.

Each structure is given as a SMILES string. Read-outs that look alike come from different tables or passages of the source. Square brackets hold non-standard residues; d marks the D form. Peptide text beside a SMILES is read from it. αMeF = C[C@](N)(Cc1ccccc1)C(=O)O; αMeK = C[C@](N)(CCCCN)C(=O)O; αMeS = C[C@](N)(CO)C(=O)O; Aib = CC(C)(N)C(=O)O

As for `CC[C@H](C)[C@H](NC(=O)[C@](C)(Cc1ccccc1)NC(=O)[C@H](CCC(=O)O)NC(=O)[C@](C)(CCCCN)NC(=O)[C@H](C)NC(=O)[C@H](C)NC(=O)[C@H](CCC(=O)O)NC(=O)CNC(=O)[C@H](CCC(=O)O)NC(=O)[C@H](CC(C)C)NC(=O)[C@](C)(Cc1ccccc1)NC(=O)[C@H](CO)NC(=O)[C@](C)(CO)NC(=O)[C@@H](NC(=O)[C@H](CC(=O)O)NC(=O)[C@@H](NC(=O)[C@@H](NC(=O)[C@](C)(Cc1ccccc1)NC(=O)[C@H](CO)NC(=O)CNC(=O)[C@H](CCC(=O)O)NC(=O)C(C)(C)NC(=O)[C@@H](N)Cc1c[nH]cn1)[C@@H](C)O)[C@@H](C)O)C(C)C)C(=O)N[C@@H](C)C(=O)N[C@@](C)(Cc1ccccc1)C(=O)N[C@H](C(=O)N[C@H](C(=O)N[C@@](C)(CCCCN)C(=O)NCC(=O)NCC(N)=O)C(C)C)C(C)C` [compound 29] (H-H[Aib]EGS[αMeF]TTDV[αMeS]S[αMeF]LEGEAA[αMeK]E[αMeF]IA[αMeF]VV[αMeK]GG-NH2), the EC50 in assay [1] (setting [3]), in assay [1] (setting [4]), in assay [2] (setting [5]) and in assay [2] (setting [6]) was no less than 100 nM throughout.

On to `CC[C@H](C)[C@H](NC(=O)[C@](C)(Cc1ccccc1)NC(=O)[C@H](CCC(=O)O)NC(=O)[C@](C)(CCCCN)NC(=O)[C@H](C)NC(=O)[C@H](C)NC(=O)[C@H](CCC(=O)O)NC(=O)CNC(=O)[C@H](CCC(=O)O)NC(=O)[C@H](CC(C)C)NC(=O)[C@](C)(Cc1ccccc1)NC(=O)[C@H](CO)NC(=O)[C@H](CO)NC(=O)[C@@H](NC(=O)[C@H](CCC(=O)O)NC(=O)[C@H](CO)NC(=O)[C@H](CO)NC(=O)[C@](C)(Cc1ccccc1)NC(=O)[C@H](CO)NC(=O)CNC(=O)[C@H](CCC(=O)O)NC(=O)C(C)(C)NC(=O)[C@@H](N)Cc1c[nH]cn1)C(C)C)C(=O)N[C@@H](C)C(=O)N[C@@](C)(Cc1ccccc1)C(=O)N[C@H](C(=O)N[C@H](C(=O)N[C@@](C)(CCCCN)C(=O)NCC(=O)NCC(N)=O)C(C)C)C(C)C` [compound 9] (H-H[Aib]EGS[αMeF]SSEVSS[αMeF]LEGEAA[αMeK]E[αMeF]IA[αMeF]VV[αMeK]GG-NH2; N-terminus assumed), for which the EC50 in assay [1] (setting [3]), in assay [1] (setting [4]), in assay [2] (setting [5]) and in assay [2] (setting [6]) was no less than 29 nM in each case.

Consider `CCCCCCCCCCCC(=O)N[C@@H](CCC(=O)N[C@@H](CCC(=O)NCCCC[C@H](NC(=O)[C@H](C)NC(=O)[C@H](C)NC(=O)[C@H](CCC(=O)O)NC(=O)CNC(=O)[C@H](CCC(=O)O)NC(=O)[C@H](CC(C)C)NC(=O)[C@](C)(Cc1ccccc1)NC(=O)[C@H](CO)NC(=O)[C@](C)(CO)NC(=O)[C@@H](NC(=O)[C@H](CC(=O)O)NC(=O)[C@H](CO)NC(=O)[C@@H](NC(=O)[C@](C)(Cc1ccccc1)NC(=O)[C@H](CO)NC(=O)CNC(=O)[C@H](CCC(=O)O)NC(=O)C(C)(C)NC(=O)[C@@H](N)Cc1c[nH]cn1)[C@@H](C)O)C(C)C)C(=O)N[C@@H](CCC(=O)O)C(=O)N[C@@](C)(Cc1ccccc1)C(=O)N[C@H](C(=O)N[C@@H](C)C(=O)N[C@@](C)(Cc1ccccc1)C(=O)N[C@H](C(=O)N[C@H](C(=O)N[C@@](C)(CCCCN)C(=O)NCC(=O)NCC(N)=O)C(C)C)C(C)C)[C@@H](C)CC)C(=O)O)C(=O)O` [compound 129], for which the EC50 in assay [1] (setting [3]), in assay [1] (setting [4]), in assay [2] (setting [5]) and in assay [2] (setting [6]) was no less than 27 nM each time.

In the case of `CC[C@H](C)[C@H](NC(=O)[C@](C)(Cc1ccccc1)NC(=O)[C@H](CCC(=O)O)NC(=O)[C@H](CCCCNC(=O)COCCOCCNC(=O)COCCOCCNC(=O)CCCCCCCCCCCCCCCCC(=O)O)NC(=O)[C@H](C)NC(=O)[C@H](C)NC(=O)[C@H](CCC(=O)O)NC(=O)CNC(=O)[C@H](CCC(=O)O)NC(=O)[C@H](CC(C)C)NC(=O)[C@](C)(Cc1ccccc1)NC(=O)[C@H](CO)NC(=O)[C@](C)(CO)NC(=O)[C@@H](NC(=O)[C@H](CC(=O)O)NC(=O)[C@H](CO)NC(=O)[C@@H](NC(=O)[C@](C)(Cc1ccccc1)NC(=O)[C@H](CO)NC(=O)CNC(=O)[C@H](CCC(=O)O)NC(=O)C(C)(C)NC(=O)[C@@H](N)Cc1c[nH]cn1)[C@@H](C)O)C(C)C)C(=O)N[C@@H](C)C(=O)N[C@@](C)(Cc1ccccc1)C(=O)N[C@H](C(=O)N[C@H](C(=O)N[C@@](C)(CCCCN)C(=O)NCC(=O)NCC(N)=O)C(C)C)C(C)C` [compound 162], the EC50 in assay [1] (setting [3]), in assay [1] (setting [4]), in assay [2] (setting [5]) and in assay [2] (setting [6]) was no less than 26 nM each time.

Take `CC[C@H](C)[C@H](NC(=O)[C@H](Cc1ccccc1)NC(=O)[C@H](CCC(=O)O)NC(=O)[C@H](CCCCN)NC(=O)[C@H](C)NC(=O)[C@H](C)NC(=O)[C@H](CCC(N)=O)NC(=O)CNC(=O)[C@H](CCC(=O)O)NC(=O)[C@H](CC(C)C)NC(=O)[C@H](Cc1ccc(O)cc1)NC(=O)[C@H](CO)NC(=O)[C@](C)(CO)NC(=O)[C@@H](NC(=O)[C@H](CC(=O)O)NC(=O)[C@](C)(CO)NC(=O)[C@@H](NC(=O)[C@H](Cc1ccccc1)NC(=O)[C@@H](NC(=O)CNC(=O)[C@H](CCC(=O)O)NC(=O)C(C)(C)NC(=O)[C@@H](N)Cc1c[nH]cn1)[C@@H](C)O)[C@@H](C)O)C(C)C)C(=O)N[C@@H](C)C(=O)N[C@@H](Cc1c[nH]c2ccccc12)C(=O)N[C@@H](CC(C)C)C(=O)N[C@H](C(=O)N[C@@H](CCCCN)C(=O)NCC(=O)N[C@@H](CCCNC(=N)N)C(N)=O)C(C)C` [compound 23]: the EC50 in assay [1] (setting [3]), in assay [1] (setting [4]), in assay [2] (setting [5]) and in assay [2] (setting [6]) was no less than 540 nM throughout.

For `CC[C@H](C)[C@H](NC(=O)[C@H](Cc1ccccc1)NC(=O)[C@H](CCC(=O)O)NC(=O)[C@H](CCCCN)NC(=O)[C@H](C)NC(=O)[C@H](C)NC(=O)[C@H](CCC(N)=O)NC(=O)CNC(=O)[C@H](CCC(=O)O)NC(=O)[C@H](CC(C)C)NC(=O)[C@H](Cc1ccc(O)cc1)NC(=O)[C@H](CO)NC(=O)[C@](C)(CO)NC(=O)[C@@H](NC(=O)[C@H](CC(=O)O)NC(=O)[C@H](CO)NC(=O)[C@@H](NC(=O)[C@H](Cc1ccccc1)NC(=O)[C@@H](NC(=O)CNC(=O)[C@H](CCC(=O)O)NC(=O)C(C)(C)NC(=O)[C@@H](N)Cc1c[nH]cn1)[C@@H](C)O)[C@@H](C)O)C(C)C)C(=O)N[C@@H](C)C(=O)N[C@@H](Cc1c[nH]c2ccccc12)C(=O)N[C@@H](CC(C)C)C(=O)N[C@H](C(=O)N[C@@H](CCCCN)C(=O)NCC(=O)N[C@@H](CCCNC(=N)N)C(N)=O)C(C)C` [compound 21], the EC50 in assay [1] (setting [3]), in assay [1] (setting [4]), in assay [2] (setting [5]) and in assay [2] (setting [6]) was no less than 340 nM throughout.
